# Measurements as given in US20170050957A1, “4-AMINO-6-(HETEROCYCLIC)PICOLINATES AND 6-AMINO-2-(HETEROCYCLIC)PYRIMIDINE-4-CARBOXYLATES AND THEIR USE AS HERBICIDES” (Dow AgroSciences LLC, priority 2013, published 2017).
# Like-named read-outs stand apart in the source and are kept apart here.
# Assays:
# [1] = tested on: Key Broadleaf Weed and Crop Species; assay: Post-emergent Test II herbicidal activity (Table 15); assay type: in vivo; settings: post-emergence, 336 h, 14 d; for pest or weed control at 35 g/ha: 35 g ai/ha; for pest or weed control at 70 g/ha: 70 g ai/ha; for pest or weed control at 140 g/ha: 140 g ai/ha
# Procedure, shortened: (§1)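 Visual injury rating (0 = none, 100% = complete kill) made 14 d after treatment, relative to untreated plants. Compounds in an acetone/DMSO/aqueous crop-oil/surfactant spray, at top rate and serial 1/2×-1/16× rates, were applied at 187 L/ha overhead to first-second true leaf plants raised 7-21 d in greenhouse.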
# [2] = tested on: Key Grass and Sedge Weeds as well as Grass Crops; assay: Post-emergent Test II herbicidal activity (Table 16); assay type: in vivo; settings: post-emergence, 336 h, 14 d; for pest or weed control at 35 g/ha: 35 g ai/ha; for pest or weed control at 70 g/ha: 70 g ai/ha; for pest or weed control at 140 g/ha: 140 g ai/ha
# Procedure, shortened: as §1
# [3] = Abutilon theophrasti, velvetleaf (Abutilon theophrasti), read-out: Visual Growth Reduction (%) 14 Days After Application, ABUTH
# [4] = Amaranthus retroflexus, redroot pigweed (Amaranthus retroflexus), read-out: Visual Growth Reduction (%) 14 Days After Application, AMARE
# [5] = Brassica napus, oilseed rape, canola (Brassica napus), read-out: Visual Growth Reduction (%) 14 Days After Application, BRSNN
# [6] = Chenopodium album, lambsquarters (Chenopodium album), read-out: Visual Growth Reduction (%) 14 Days After Application, CHEAL
# [7] = Euphorbia heterophylla, wild poinsettia (Euphorbia heterophylla), read-out: Visual Growth Reduction (%) 14 Days After Application, EPHHL
# [8] = Helianthus annuus, sunflower (Helianthus annuus), read-out: Visual Growth Reduction (%) 14 Days After Application, HELAN
# [9] = Cyperus esculentus, yellow nutsedge (Cyperus esculentus), read-out: Visual Growth Reduction (%) 14 Days After Application, CYPES
# [10] = Echinochloa crus-galli, barnyardgrass (Echinochloa crus-galli), read-out: Visual Growth Reduction (%) 14 Days After Application, ECHCG
# [11] = Oryza sativa, rice (Oryza sativa), read-out: Visual Growth Reduction (%) 14 Days After Application, ORYSA
# [12] = Setaria faberi, giant foxtail (Setaria faberi), read-out: Visual Growth Reduction (%) 14 Days After Application, SETFA
# [13] = Triticum aestivum, wheat, spring (Triticum aestivum), read-out: Visual Growth Reduction (%) 14 Days After Application, TRZAS
# [14] = Zea mays, maize, corn (Zea mays), read-out: Visual Growth Reduction (%) 14 Days After Application, ZEAMX
compound,measurement,setting,value
COC(=O)c1nc(-c2ccc3sccc3c2)c(F)c(N)c1Cl [Compound 3.03],pest or weed control at 35 g/ha,[1]; [3],95 to 100%
same,pest or weed control at 70 g/ha,[1]; [3],95 to 100%
same,pest or weed control at 140 g/ha,[1]; [3],95 to 100%
same,pest or weed control at 35 g/ha,[1]; [4],95 to 100%
same,pest or weed control at 70 g/ha,[1]; [4],95 to 100%
same,pest or weed control at 140 g/ha,[1]; [4],95 to 100%
same,pest or weed control at 35 g/ha,[1]; [5],0 to 29%
same,pest or weed control at 70 g/ha,[1]; [5],60 to 74%
same,pest or weed control at 140 g/ha,[1]; [5],60 to 74%
same,pest or weed control at 35 g/ha,[1]; [6],95 to 100%
same,pest or weed control at 70 g/ha,[1]; [6],95 to 100%
same,pest or weed control at 140 g/ha,[1]; [6],95 to 100%
same,pest or weed control at 35 g/ha,[1]; [7],95 to 100%
same,pest or weed control at 70 g/ha,[1]; [7],95 to 100%
same,pest or weed control at 140 g/ha,[1]; [7],95 to 100%
same,pest or weed control at 35 g/ha,[1]; [8],95 to 100%
same,pest or weed control at 70 g/ha,[1]; [8],95 to 100%
same,pest or weed control at 140 g/ha,[1]; [8],95 to 100%
same,pest or weed control at 35 g/ha,[2]; [9],45 to 59%
same,pest or weed control at 70 g/ha,[2]; [9],45 to 59%
same,pest or weed control at 140 g/ha,[2]; [9],45 to 59%
same,pest or weed control at 35 g/ha,[2]; [10],85 to 94%
same,pest or weed control at 70 g/ha,[2]; [10],95 to 100%
same,pest or weed control at 140 g/ha,[2]; [10],95 to 100%
same,pest or weed control at 35 g/ha,[2]; [11],0 to 29%
same,pest or weed control at 70 g/ha,[2]; [11],0 to 29%
same,pest or weed control at 140 g/ha,[2]; [11],0 to 29%
same,pest or weed control at 35 g/ha,[2]; [12],0 to 29%
same,pest or weed control at 70 g/ha,[2]; [12],85 to 94%
same,pest or weed control at 140 g/ha,[2]; [12],85 to 94%
same,pest or weed control at 35 g/ha,[2]; [13],0 to 29%
same,pest or weed control at 70 g/ha,[2]; [13],30 to 44%
same,pest or weed control at 140 g/ha,[2]; [13],45 to 59%
same,pest or weed control at 35 g/ha,[2]; [14],95 to 100%
same,pest or weed control at 70 g/ha,[2]; [14],95 to 100%
same,pest or weed control at 140 g/ha,[2]; [14],95 to 100%
same,melting point,,84 to 85 °C
"COC(=O)c1nc(-c2ccc(Cl)c3occc23)c(F)c(N)c1Cl [Compound 2.16, Methyl 4-amino-3-chloro-6-(7-chlorobenzofuran-4-yl)-5-fluoropicolinate]",pest or weed control at 35 g/ha,[1]; [3],85 to 94%
same,pest or weed control at 70 g/ha,[1]; [3],95 to 100%
same,pest or weed control at 140 g/ha,[1]; [3],95 to 100%
same,pest or weed control at 35 g/ha,[1]; [4],95 to 100%
same,pest or weed control at 70 g/ha,[1]; [4],95 to 100%
same,pest or weed control at 140 g/ha,[1]; [4],95 to 100%
same,pest or weed control at 35 g/ha,[1]; [5],45 to 59%
same,pest or weed control at 70 g/ha,[1]; [5],60 to 74%
same,pest or weed control at 140 g/ha,[1]; [5],60 to 74%
same,pest or weed control at 35 g/ha,[1]; [6],95 to 100%
same,pest or weed control at 70 g/ha,[1]; [6],95 to 100%
same,pest or weed control at 140 g/ha,[1]; [6],95 to 100%
same,pest or weed control at 35 g/ha,[1]; [7],0 to 29%
same,pest or weed control at 70 g/ha,[1]; [7],0 to 29%
same,pest or weed control at 140 g/ha,[1]; [7],0 to 29%
same,pest or weed control at 35 g/ha,[1]; [8],95 to 100%
same,pest or weed control at 70 g/ha,[1]; [8],95 to 100%
same,pest or weed control at 140 g/ha,[1]; [8],95 to 100%
same,pest or weed control at 35 g/ha,[2]; [9],0 to 29%
same,pest or weed control at 70 g/ha,[2]; [9],0 to 29%
same,pest or weed control at 140 g/ha,[2]; [9],0 to 29%
same,pest or weed control at 35 g/ha,[2]; [10],0 to 29%
same,pest or weed control at 70 g/ha,[2]; [10],0 to 29%
same,pest or weed control at 140 g/ha,[2]; [10],0 to 29%
same,pest or weed control at 35 g/ha,[2]; [11],0 to 29%
same,pest or weed control at 70 g/ha,[2]; [11],0 to 29%
same,pest or weed control at 140 g/ha,[2]; [11],0 to 29%
same,pest or weed control at 35 g/ha,[2]; [12],0 to 29%
same,pest or weed control at 70 g/ha,[2]; [12],0 to 29%
same,pest or weed control at 140 g/ha,[2]; [12],0 to 29%
same,pest or weed control at 35 g/ha,[2]; [13],0 to 29%
same,pest or weed control at 70 g/ha,[2]; [13],0 to 29%
same,pest or weed control at 140 g/ha,[2]; [13],0 to 29%
same,pest or weed control at 35 g/ha,[2]; [14],45 to 59%
same,pest or weed control at 70 g/ha,[2]; [14],95 to 100%
same,pest or weed control at 140 g/ha,[2]; [14],95 to 100%
same,melting point,,184 to 186 °C
